Tested on: Japanese white rabbits
Experiment: Ophthalmic disorder caused by 8-time-a-day instillation to white rabbits: macroscopic observation of anterior segment of the eye
Type: in vivo, rabbit
Set-up: scale not given here
Conditions: mean of three eyes
Description: The test drugs, Compound A and Compound C, were each dissolved in the following base at a concentration of 0.125, 0.25, 0.5 and 1.0% and adjusted to pH 7 for use in this experiment. [table] Japanese white rabbits (body weight about 2 kg) purchased from Japan Laboratory Animals, INC. were used. These animals were bred in a breeding chamber set to temperature 23±3° C., humidity 55±10% and fed on limited amount of 100 g a day of a solid feed (Labo R Stock, Nihon-Nosan Kogyo K.K.). They were allowed free access to tap water. Instillation: Using a micropipet, each test drug (100 μl) was instilled into the right eye of each animal 8 times at one hour intervals. Into the left eye was instilled a base in the same manner. Observation: anterior segment of the eye was macroscopically observed before instillation and 30 min after 2nd, 4th, 6th and 8th administrations, according to the macroscopic criteria for ocular lesions as shown in Table 1 (Naruyuki Fukui, […] no Rinshou 4, 277-289, 1970). In addition, corneal staining spot was observed before instillation and after 8th administration. [table]

[1] = 0.125%, 30 min after 2nd instillation
[2] = 0.125%, 30 min after 4th instillation
[3] = 0.125%, 30 min after 6th instillation
[4] = 0.125%, 30 min after 8th instillation
[5] = 0.25%, 30 min after 2nd instillation
[6] = 0.25%, 30 min after 4th instillation
[7] = 0.25%, 30 min after 6th instillation
[8] = 0.25%, 30 min after 8th instillation
[9] = 0.5%, 30 min after 2nd instillation
[10] = 0.5%, 30 min after 4th instillation
[11] = 0.5%, 30 min after 6th instillation
[12] = 0.5%, 30 min after 8th instillation
[13] = 1.0%, 30 min after 2nd instillation
[14] = 1.0%, 30 min after 4th instillation
[15] = 1.0%, 30 min after 6th instillation
[16] = 1.0%, 30 min after 8th instillation

CC(N)[C@H]1CC[C@H](C(=O)Nc2ccncc2)CC1.Cl.Cl.O (single isomer, unassigned; (+)) [Compound A, (+)-trans-4-(1-Aminoethyl)-1-(4-pyridylcarbamoyl)cyclohexane 2HCl 1H2O]
0: Score of ocular lesions: Conjunctiva Discharge [1] | Score of ocular lesions: Conjunctiva Nictitating membrane [1] | Score of ocular lesions: Conjunctiva Palpebral edema [1] | Score of ocular lesions: Cornea Area [1] | Score of ocular lesions: Cornea Degree [1] | Score of ocular lesions: Iris Values [1] | Score of ocular lesions: Conjunctiva Nictitating membrane [2] | Score of ocular lesions: Conjunctiva Palpebral edema [2] | Score of ocular lesions: Conjunctiva Palpebral redness [2] | Score of ocular lesions: Cornea Area [2] | Score of ocular lesions: Cornea Degree [2] | Score of ocular lesions: Iris Values [2] | Score of ocular lesions: Conjunctiva Nictitating membrane [3] | Score of ocular lesions: Cornea Area [3] | Score of ocular lesions: Cornea Degree [3] | Score of ocular lesions: Iris Values [3] | Score of ocular lesions: Conjunctiva Discharge [4] | Score of ocular lesions: Cornea Area [4] | Score of ocular lesions: Cornea Degree [4] | Score of ocular lesions: Iris Values [4] | Score of ocular lesions: Conjunctiva Bulbar redness (0.125%, Before instillation) | Score of ocular lesions: Conjunctiva Discharge (0.125%, Before instillation) | Score of ocular lesions: Conjunctiva Nictitating membrane (0.125%, Before instillation) | Score of ocular lesions: Conjunctiva Palpebral edema (0.125%, Before instillation) | Score of ocular lesions: Conjunctiva Palpebral redness (0.125%, Before instillation) | Score of ocular lesions: Cornea Area (0.125%, Before instillation) | Score of ocular lesions: Cornea Degree (0.125%, Before instillation) | Score of ocular lesions: Iris Values (0.125%, Before instillation) | Score of ocular lesions: Total score (0.125%, Before instillation) | Score of ocular lesions: Conjunctiva Discharge [5] | Score of ocular lesions: Conjunctiva Palpebral edema [5] | Score of ocular lesions: Cornea Area [5] | Score of ocular lesions: Cornea Degree [5] | Score of ocular lesions: Iris Values [5] | Score of ocular lesions: Conjunctiva Palpebral edema [6] | Score of ocular lesions: Conjunctiva Palpebral redness [6] | Score of ocular lesions: Cornea Area [6] | Score of ocular lesions: Cornea Degree [6] | Score of ocular lesions: Iris Values [6] | Score of ocular lesions: Cornea Area [7] | Score of ocular lesions: Cornea Degree [7] | Score of ocular lesions: Iris Values [7] | Score of ocular lesions: Conjunctiva Discharge [8] | Score of ocular lesions: Conjunctiva Palpebral edema [8] | Score of ocular lesions: Cornea Area [8] | Score of ocular lesions: Cornea Degree [8] | Score of ocular lesions: Iris Values [8] | Score of ocular lesions: Conjunctiva Bulbar redness (0.25%, Before instillation) | Score of ocular lesions: Conjunctiva Discharge (0.25%, Before instillation) | Score of ocular lesions: Conjunctiva Nictitating membrane (0.25%, Before instillation) | Score of ocular lesions: Conjunctiva Palpebral edema (0.25%, Before instillation) | Score of ocular lesions: Conjunctiva Palpebral redness (0.25%, Before instillation) | Score of ocular lesions: Cornea Area (0.25%, Before instillation) | Score of ocular lesions: Cornea Degree (0.25%, Before instillation) | Score of ocular lesions: Iris Values (0.25%, Before instillation) | Score of ocular lesions: Total score (0.25%, Before instillation) | Score of ocular lesions: Conjunctiva Discharge [9] | Score of ocular lesions: Conjunctiva Nictitating membrane [9] | Score of ocular lesions: Cornea Area [9] | Score of ocular lesions: Cornea Degree [9] | Score of ocular lesions: Iris Values [9] | Score of ocular lesions: Cornea Area [10] | Score of ocular lesions: Cornea Degree [10] | Score of ocular lesions: Iris Values [10] | Score of ocular lesions: Cornea Area [11] | Score of ocular lesions: Cornea Degree [11] | Score of ocular lesions: Iris Values [11] | Score of ocular lesions: Cornea Area [12] | Score of ocular lesions: Cornea Degree [12] | Score of ocular lesions: Iris Values [12] | Score of ocular lesions: Conjunctiva Discharge (0.5%, Before instillation) | Score of ocular lesions: Conjunctiva Nictitating membrane (0.5%, Before instillation) | Score of ocular lesions: Conjunctiva Palpebral edema (0.5%, Before instillation) | Score of ocular lesions: Conjunctiva Palpebral redness (0.5%, Before instillation) | Score of ocular lesions: Cornea Area (0.5%, Before instillation) | Score of ocular lesions: Cornea Degree (0.5%, Before instillation) | Score of ocular lesions: Iris Values (0.5%, Before instillation) | Score of ocular lesions: Cornea Area [13] | Score of ocular lesions: Cornea Degree [13] | Score of ocular lesions: Iris Values [13] | Score of ocular lesions: Cornea Area [14] | Score of ocular lesions: Cornea Degree [14] | Score of ocular lesions: Iris Values [14] | Score of ocular lesions: Cornea Area [15] | Score of ocular lesions: Cornea Degree [15] | Score of ocular lesions: Iris Values [15] | Score of ocular lesions: Cornea Area [16] | Score of ocular lesions: Cornea Degree [16] | Score of ocular lesions: Iris Values [16] | Score of ocular lesions: Conjunctiva Bulbar redness (1.0%, Before instillation) | Score of ocular lesions: Conjunctiva Discharge (1.0%, Before instillation) | Score of ocular lesions: Conjunctiva Nictitating membrane (1.0%, Before instillation) | Score of ocular lesions: Conjunctiva Palpebral edema (1.0%, Before instillation) | Score of ocular lesions: Cornea Area (1.0%, Before instillation) | Score of ocular lesions: Cornea Degree (1.0%, Before instillation) | Score of ocular lesions: Iris Values (1.0%, Before instillation)
1.67: Score of ocular lesions: Conjunctiva Discharge [15] | Score of ocular lesions: Conjunctiva Nictitating membrane [16]
1.33: Score of ocular lesions: Total score [4] | Score of ocular lesions: Conjunctiva Palpebral edema [15]
2.17: Score of ocular lesions: Total score [13] | Score of ocular lesions: Conjunctiva Palpebral redness [16]
5.17: Score of ocular lesions: Total score [11]
0.17: Score of ocular lesions: Conjunctiva Palpebral redness [1] | Score of ocular lesions: Conjunctiva Discharge [2] | Score of ocular lesions: Conjunctiva Nictitating membrane [4] | Score of ocular lesions: Conjunctiva Nictitating membrane [5] | Score of ocular lesions: Conjunctiva Palpebral redness [5] | Score of ocular lesions: Conjunctiva Discharge [6] | Score of ocular lesions: Conjunctiva Palpebral edema [7] | Score of ocular lesions: Conjunctiva Palpebral edema [9] | Score of ocular lesions: Conjunctiva Palpebral redness [9] | Score of ocular lesions: Conjunctiva Palpebral edema [10] | Score of ocular lesions: Conjunctiva Palpebral redness [10] | Score of ocular lesions: Conjunctiva Bulbar redness (0.5%, Before instillation) | Score of ocular lesions: Total score (0.5%, Before instillation) | Score of ocular lesions: Conjunctiva Nictitating membrane [13] | Score of ocular lesions: Conjunctiva Palpebral redness (1.0%, Before instillation) | Score of ocular lesions: Total score (1.0%, Before instillation)
3.00: Score of ocular lesions: Conjunctiva Palpebral edema [16]
2.67: Score of ocular lesions: Conjunctiva Discharge [11]
4.01: Score of ocular lesions: Total score [12]
2.84: Score of ocular lesions: Total score [14]
5.67: Score of ocular lesions: Total score [15]
0.33: Score of ocular lesions: Conjunctiva Bulbar redness [1] | Score of ocular lesions: Conjunctiva Bulbar redness [2] | Score of ocular lesions: Conjunctiva Bulbar redness [3] | Score of ocular lesions: Conjunctiva Palpebral edema [3] | Score of ocular lesions: Conjunctiva Palpebral redness [3] | Score of ocular lesions: Conjunctiva Bulbar redness [4] | Score of ocular lesions: Conjunctiva Palpebral redness [4] | Score of ocular lesions: Conjunctiva Palpebral redness [7] | Score of ocular lesions: Conjunctiva Palpebral redness [8] | Score of ocular lesions: Conjunctiva Discharge [10] | Score of ocular lesions: Conjunctiva Nictitating membrane [10] | Score of ocular lesions: Conjunctiva Discharge [13]
1.17: Score of ocular lesions: Conjunctiva Discharge [12] | Score of ocular lesions: Conjunctiva Bulbar redness [15]
2.33: Score of ocular lesions: Conjunctiva Discharge [16]
1.99: Score of ocular lesions: Total score [3]
0.67: Score of ocular lesions: Conjunctiva Palpebral redness [11] | Score of ocular lesions: Conjunctiva Nictitating membrane [12] | Score of ocular lesions: Conjunctiva Palpebral edema [12] | Score of ocular lesions: Conjunctiva Palpebral redness [12] | Score of ocular lesions: Conjunctiva Palpebral edema [13] | Score of ocular lesions: Conjunctiva Discharge [14] | Score of ocular lesions: Conjunctiva Palpebral edema [14] | Score of ocular lesions: Conjunctiva Nictitating membrane [15]
0.50: Score of ocular lesions: Total score [1] | Score of ocular lesions: Total score [2] | Score of ocular lesions: Conjunctiva Discharge [3] | Score of ocular lesions: Conjunctiva Palpebral edema [4] | Score of ocular lesions: Conjunctiva Bulbar redness [5] | Score of ocular lesions: Conjunctiva Bulbar redness [6] | Score of ocular lesions: Conjunctiva Nictitating membrane [6] | Score of ocular lesions: Conjunctiva Bulbar redness [7] | Score of ocular lesions: Conjunctiva Discharge [7] | Score of ocular lesions: Conjunctiva Nictitating membrane [7] | Score of ocular lesions: Conjunctiva Nictitating membrane [8] | Score of ocular lesions: Conjunctiva Bulbar redness [9] | Score of ocular lesions: Conjunctiva Bulbar redness [10] | Score of ocular lesions: Conjunctiva Bulbar redness [11] | Score of ocular lesions: Conjunctiva Nictitating membrane [11] | Score of ocular lesions: Conjunctiva Bulbar redness [13] | Score of ocular lesions: Conjunctiva Palpebral redness [13] | Score of ocular lesions: Conjunctiva Bulbar redness [14] | Score of ocular lesions: Conjunctiva Nictitating membrane [14] | Score of ocular lesions: Conjunctiva Palpebral redness [14]
0.49: Score of ocular lesions: Total score [9]
1.50: Score of ocular lesions: Total score [7] | Score of ocular lesions: Total score [10] | Score of ocular lesions: Conjunctiva Bulbar redness [16]
10.67: Score of ocular lesions: Total score [16]
0.84: Score of ocular lesions: Total score [5]
0.83: Score of ocular lesions: Conjunctiva Bulbar redness [8] | Score of ocular lesions: Conjunctiva Palpebral edema [11] | Score of ocular lesions: Conjunctiva Bulbar redness [12] | Score of ocular lesions: Conjunctiva Palpebral redness [15]
1.66: Score of ocular lesions: Total score [8]
1.00: Score of ocular lesions: Total score [6]

From patent US6673812B1, “Preventives/remedies for glaucoma” (Senju Pharmaceutical Co., Ltd., priority 1998, dated 2004)
